# Results published in PMC9329436, “Optimization of the 4-anilinoquin(az)oline scaffold as epidermal growth factor receptor (EGFR) inhibitors for chordoma utilizing a toxicology profiling assay platform” (Scientific Reports, 2022).
# System: HL60 cells
# Test: AsedaSciences SYSTEMETRIC Cell Health Screen (flow cytometry toxicity profiling)
# Settings: HL60, 4 h, 5 nM–100 µM, probability 0–1, n = 2
# Text: To prioritize further optimization, in addition to cellular potency, we utilized the AsedaSciences® […]® Cell Health Screen. This live cell flow cytometry (FC) screen was developed to assess human safety risk for candidate pharmaceutical small molecules at the early hit-to-lead stage of development. The screen works by estimating the risk using a supervised machine learning (ML) classifier to assess a multiparametric cellular stress phenotype, produced by the test compound, relative to a training set of known compounds (Table S1). This screen has been designed for early pipeline risk estimation regardless of pharmaceutical class/disease type, so it uses HL60 as the reporter cell line.
# The ML classifier was trained with 300 historically known compounds (on market or withdrawn drugs, research compounds, etc.), which were divided into two outcome classes based upon literature, clinical trials, and market histories where applicable. This external curation informed an outcome of “high-risk” or “low-risk”. All 300 compounds were also processed through the automated FC screen, populating each of the two classes with frequency distributions of empirical cell-based phenotypes.
# To estimate human safety risk for an unknown compound, the ML classifier assesses the similarity of the test compound’s cell-based phenotype to the distributions of phenotypes in the two outcome classes. […] Phenotypes are derived from twelve FC detection parameters, including light scatter and a series of fluorescent physiological reporter dyes, that track cell stress-related endpoints.
# To produce the Cell Health Index, the ML classifier uses all twelve FC parameters simultaneously in a multidimensional logistic regression model, so the CHI contains the most predictive power. In addition to the Cell Health Index, Table 4 also reports probability scores for eight cell stress-related endpoints. These scores are produced individually by passing information to the ML classifier relating to parameters that inform that endpoint. For example, to produce the cell morphology (CM) score, the ML classifier only uses the FC detection parameters for forward scatter (informing change in cell diameter) and side scatter (informing change in optical granularity of the cell) to inform the model. Together, these eight endpoints provide a “biological fingerprint”, allowing assessment of the degree to which SAR series members behave differently across endpoints.
# In a 384-well platform, HL60 cells were exposed to a 10-step, 3 × dilution series of each test compound (5 nM–100 µM) for 4 h at 37 °C with 5% CO2. Each dilution series was screened in duplicate, occupying a total of 20 wells, allowing 16 test compounds to be assayed per plate. Each row contained one positive and one negative control well, for a total of 16 replicate positive/negative control pairs on each assay plate. Compound formatting, cell deposition, and dye application were performed robotically so that final assay conditions comprised 100,000 cells in a 40 µL volume. After the 4 h compound exposure, cells were immediately stained with a panel of fluorescent dyes that report physiological signatures of both mitochondrial dysfunction and gross cell stress. Fluorescence and forward/side-scatter data were collected using automated FC with no gating. FC data are processed by an automated algorithm for producing quality control measures and ML classification of compound phenotypes. • 2. HL60 cell culture production
# HL60 cells were produced as suspension cultures in glass 850 cm^2 roller bottles with vented caps, at 1 RPM, 5% CO2, and 37 °C. […] Culture density was maintained at or below 1 × 10^6 cells/mL.
Compound,CC: Cell Cycle score,CM: Cell morphology score,CMI: Cell membrane integrity score,MMP: Mitochondrial membrane depolarization score,ROS: Reactive superoxide species score,GSH: Glutathione score,NMI1: Nuclear membrane integrity 1 score,NMI2: Nuclear membrane integrity 2 score
"CCCCc1oc2ccccc2c1C(=O)c1cc(I)c(OCCN(CC)CC)c(I)c1 [Amiodarone, reference compound]",0.96,0.97,0.80,0.87,0.19,,,
"COc1ccc2cc3[n+](cc2c1OC)CCc1cc2c(cc1-3)OCO2 [Berberine, reference compound]",0.99,0.99,0.050,1.00,1.00,0.93,0.99,0.97
"O=C1CC2(CCCC2)CC(=O)N1CCCCN1CCN(c2ncccn2)CC1 [Buspirone, reference compound]",0.11,0.060,0.040,0.020,0.05,0.080,0.070,0.040
"Cc1ccc(-c2cc(C(F)(F)F)nn2-c2ccc(S(N)(=O)=O)cc2)cc1 [Celecoxib, reference compound]",0.61,0.56,0.94,0.51,0.96,0.36,0.53,0.51
"Clc1cccc(Cl)c1N=C1NCCN1 [Clonidine, reference compound]",0.060,0.00,0.030,0.010,0.040,0.10,0.15,0.040
"CN(C)CCOC(c1ccccc1)c1ccccc1 [Diphenhydramine, reference compound]",0.030,0.010,0.030,0.030,0.040,,,
"CC(C)(C(=O)O)c1ccc(C(O)CCCN2CCC(C(O)(c3ccccc3)c3ccccc3)CC2)cc1 (stereo not drawn) [Fexofenadine, reference compound]",0.020,0.00,0.040,0.020,0.16,,,
"COc1cc2ncnc(Nc3ccc(F)c(Cl)c3)c2cc1OCCCN1CCOCC1 [Gefitinib, reference compound]",0.93,1.00,0.99,0.99,0.93,0.97,0.61,0.94
"CC(C(=O)O)c1cccc(C(=O)c2ccccc2)c1 (stereo not drawn) [Ketoprofen, reference compound]",0.050,0.00,0.030,0.010,0.18,0.010,,
"CS(=O)(=O)CCNCc1ccc(-c2ccc3ncnc(Nc4ccc(OCc5cccc(F)c5)c(Cl)c4)c3c2)o1 [Lapatinib, reference compound]",0.93,1.00,1.00,1.00,0.90,0.96,0.97,0.92
"CCOC(=O)N1CCC(=C2c3ccc(Cl)cc3CCc3cccnc32)CC1 [Loratadine, reference compound]",0.84,0.36,0.70,0.65,0.85,,,
"CCc1nn(CCCN2CCN(c3cccc(Cl)c3)CC2)c(=O)n1CCOc1ccccc1 [Nefazodone, reference compound]",0.97,0.97,1.00,1.00,1.00,0.99,0.73,0.87
"Cc1ccnc2c1NC(=O)c1cccnc1N2C1CC1 [Nevirapine, reference compound]",0.070,0.020,0.050,0.010,0.28,0.030,0.020,0.040
"CC1(C)NC(=O)N(c2ccc([N+](=O)[O-])c(C(F)(F)F)c2)C1=O [Nilutamide, reference compound]",0.68,0.040,0.060,0.42,0.090,0.040,0.21,0.52
"O=C(O)CCc1nc(-c2ccccc2)c(-c2ccccc2)o1 [Oxaprozin, reference compound]",0.060,0.00,0.090,0.000,0.16,0.030,0.040,0.12
"[H]/N=C(/N)N/C(=N/[H])NCCc1ccccc1 [Phenformin, reference compound]",0.28,0.74,0.27,0.37,0.77,0.17,0.82,0.080
"Cc1ccc(N(CC2=NCCN2)c2cccc(O)c2)cc1 [Phentolamine, reference compound]",0.040,0.00,0.16,0.29,0.11,0.17,0.64,0.79

# Same assay, conditions: HL60, 4 h, 5 nM–100 µM, probability (0–1) of high-risk class, n = 2
row,Compound,CHI: Cell Health Index
1,"COc1ccc2cc3[n+](cc2c1OC)CCc1cc2c(cc1-3)OCO2 [Berberine, reference compound]",0.82
2,"O=C1CC2(CCCC2)CC(=O)N1CCCCN1CCN(c2ncccn2)CC1 [Buspirone, reference compound]",0.22
3,"Cc1ccc(-c2cc(C(F)(F)F)nn2-c2ccc(S(N)(=O)=O)cc2)cc1 [Celecoxib, reference compound]",0.54
4,"Clc1cccc(Cl)c1N=C1NCCN1 [Clonidine, reference compound]",0.14
5,"COc1cc2ncnc(Nc3ccc(F)c(Cl)c3)c2cc1OCCCN1CCOCC1 [Gefitinib, reference compound]",0.80
6,"CS(=O)(=O)CCNCc1ccc(-c2ccc3ncnc(Nc4ccc(OCc5cccc(F)c5)c(Cl)c4)c3c2)o1 [Lapatinib, reference compound]",0.89
7,"CCc1nn(CCCN2CCN(c3cccc(Cl)c3)CC2)c(=O)n1CCOc1ccccc1 [Nefazodone, reference compound]",0.78
8,"Cc1ccnc2c1NC(=O)c1cccnc1N2C1CC1 [Nevirapine, reference compound]",0.18
9,"CC1(C)NC(=O)N(c2ccc([N+](=O)[O-])c(C(F)(F)F)c2)C1=O [Nilutamide, reference compound]",0.34
10,"[H]/N=C(/N)N/C(=N/[H])NCCc1ccccc1 [Phenformin, reference compound]",0.41
